The source of these data is article PMC3407089, “Influence of GABAA Receptor α Subunit Isoforms on the Benzodiazepine Binding Site” (PLoS ONE, 2012).

In assay [1] the target is α2S204Cβ2γ2 GABAA receptor (Rattus norvegicus, UniProt P18508+P23576, S232C). As to the kind of experiment: Covalent reaction at the functional level (two-electrode voltage clamp, Xenopus oocytes). It is filed as cell-based. As to conditions: after 10 µM 3-NCS and removal of non-covalently reacted 3-NCS; read-out: % allosteric modulation, 3-NCS. The protocol: (§1) Capped cRNAs were synthesized (Ambion, Austin, TX, USA) from the linearized plasmids with a cytomegalovirus promotor (pCMVvectors) containing the different subunits, respectively. A poly-A tail of about 400 residues was added to each transcript using yeast poly- A polymerase (United States Biologicals, Cleveland, OH, USA). The concentration of the cRNA was quantified on a formaldehyde gel using Radiant Red stain (Bio-Rad) for visualization of the RNA. Known concentrations of RNA ladder (Invitrogen) were loaded as standard on the same gel. cRNAs were precipitated in ethanol/isoamylalcohol 19∶ 1, the dried pellet dissolved in water and stored at −80°C. cRNA mixtures were prepared from these stock solutions and stored at −80°C. Xenopus laevis oocytes were prepared, injected and defolliculated as described previously, [39]. They were injected with 50 nL of the cRNA solution containing wild type or mutated α1 or α2, α3, α5, α6 and wild type β2 and γ2 subunits at a concentration of 10 nM : 10 nM : 50 nM [40] and then incubated in modified Barth’s solution at +18°C for at least 24 h before the measurements.
(§2) Tests with a model oocyte were performed to ensure linearity in the larger current range.
(§3) Electrophysiological experiments were performed by using the two-electrode voltage clamp method at a holding potential of −80 mV. The perfusion medium contained 90 mM NaCl, 1 mM KCl, 1 mM MgCl2, 1 mM CaCl2, and 5 mM Na-HEPES (pH 7.4) and was applied by gravity flow 6 ml/min. The perfusion medium was applied through a glass capillary with an inner diameter of 1.35 mm, the mouth of which was placed about 0.4 mm from the surface of the oocyte. Allosteric modulation via the benzodiazepine site was measured at a GABA concentration eliciting 2–5% of the maximal GABA current amplitude.

Assay [2] has as its target T1, α1T206Cβ2γ2 GABAA receptor (Rattus norvegicus, UniProt P18508+P62813, T233C). The assay is described as above. It is filed as cell-based. As to conditions: after 10 µM 3-NCS and removal of non-covalently reacted 3-NCS; read-out: % allosteric modulation, 3-NCS. As for the experimental part: as §1, §2, §3
Assay [3] deals with α1S205Cβ2γ2 GABAA receptor (Rattus norvegicus, UniProt P18508+P62813, S232C). The assay is described as above. It is filed as cell-based. As to conditions: after 10 µM 3-NCS and removal of non-covalently reacted 3-NCS; read-out: % allosteric modulation, 3-NCS. The protocol: as §1, §2, §3
Assay [4] has as its target α2S205Cβ2γ2 GABAA receptor (Rattus norvegicus, UniProt P18508+P23576, S233C). The assay is described as above. It is filed as cell-based. As to conditions: after 10 µM 3-NCS and removal of non-covalently reacted 3-NCS; read-out: % allosteric modulation, 3-NCS. As for the experimental part:
as §1, §2, §3

Assay [5] addresses α2T206Cβ2γ2 GABAA receptor (Rattus norvegicus, UniProt P18508+P23576, T234C). Described as above. It is filed as cell-based. Particulars: after 10 µM 3-NCS and removal of non-covalently reacted 3-NCS; read-out: % allosteric modulation, 3-NCS. As for the experimental part: as §1, §2, §3
For assay [6], the target named is T1, α1T206Cβ2γ2 GABAA receptor. Details: method as in PMID 19804380. Particulars: 10 µM 3-NCS; cited from earlier work.

T1 sequence (P62813 28-455 T233C): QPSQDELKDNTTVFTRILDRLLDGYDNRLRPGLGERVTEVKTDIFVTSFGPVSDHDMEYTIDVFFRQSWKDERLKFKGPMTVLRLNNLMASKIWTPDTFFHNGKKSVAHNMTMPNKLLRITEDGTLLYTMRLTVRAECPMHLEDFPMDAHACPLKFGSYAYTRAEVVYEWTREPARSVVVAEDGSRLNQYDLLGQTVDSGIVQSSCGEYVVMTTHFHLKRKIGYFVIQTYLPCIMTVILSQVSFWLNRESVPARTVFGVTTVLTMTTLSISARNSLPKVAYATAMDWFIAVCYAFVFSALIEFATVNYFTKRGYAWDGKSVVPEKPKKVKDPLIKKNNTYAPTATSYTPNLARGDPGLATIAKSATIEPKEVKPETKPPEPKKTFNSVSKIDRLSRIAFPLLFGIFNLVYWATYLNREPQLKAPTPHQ
T1 sequence (P18508 39-466): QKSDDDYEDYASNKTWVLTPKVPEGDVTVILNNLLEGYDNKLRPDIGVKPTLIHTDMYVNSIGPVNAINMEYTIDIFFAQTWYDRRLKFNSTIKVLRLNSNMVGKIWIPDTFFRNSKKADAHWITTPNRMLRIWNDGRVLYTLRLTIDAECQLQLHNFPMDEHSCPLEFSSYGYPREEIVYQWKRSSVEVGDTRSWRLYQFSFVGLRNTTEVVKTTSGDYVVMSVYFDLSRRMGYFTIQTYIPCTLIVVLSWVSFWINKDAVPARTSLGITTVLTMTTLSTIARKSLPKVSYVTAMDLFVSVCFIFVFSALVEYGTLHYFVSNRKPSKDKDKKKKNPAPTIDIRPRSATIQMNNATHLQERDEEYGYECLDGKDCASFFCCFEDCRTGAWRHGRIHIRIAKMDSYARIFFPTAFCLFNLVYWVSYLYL
T1 sequence (P63138 26-474 partner): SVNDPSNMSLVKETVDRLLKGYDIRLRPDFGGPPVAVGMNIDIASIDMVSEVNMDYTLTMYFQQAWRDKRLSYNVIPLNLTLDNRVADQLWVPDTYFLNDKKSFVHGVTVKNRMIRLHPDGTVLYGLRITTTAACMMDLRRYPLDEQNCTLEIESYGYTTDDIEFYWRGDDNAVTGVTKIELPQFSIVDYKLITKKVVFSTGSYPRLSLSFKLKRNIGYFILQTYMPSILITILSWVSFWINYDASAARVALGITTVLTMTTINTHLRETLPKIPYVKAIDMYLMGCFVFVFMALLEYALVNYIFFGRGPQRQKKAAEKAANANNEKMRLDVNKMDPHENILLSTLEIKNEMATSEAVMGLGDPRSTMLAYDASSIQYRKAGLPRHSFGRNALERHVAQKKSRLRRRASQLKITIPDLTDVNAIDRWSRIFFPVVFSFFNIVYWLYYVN
Chain of α2T206Cβ2γ2 GABAA receptor (P23576 29-451 T234C): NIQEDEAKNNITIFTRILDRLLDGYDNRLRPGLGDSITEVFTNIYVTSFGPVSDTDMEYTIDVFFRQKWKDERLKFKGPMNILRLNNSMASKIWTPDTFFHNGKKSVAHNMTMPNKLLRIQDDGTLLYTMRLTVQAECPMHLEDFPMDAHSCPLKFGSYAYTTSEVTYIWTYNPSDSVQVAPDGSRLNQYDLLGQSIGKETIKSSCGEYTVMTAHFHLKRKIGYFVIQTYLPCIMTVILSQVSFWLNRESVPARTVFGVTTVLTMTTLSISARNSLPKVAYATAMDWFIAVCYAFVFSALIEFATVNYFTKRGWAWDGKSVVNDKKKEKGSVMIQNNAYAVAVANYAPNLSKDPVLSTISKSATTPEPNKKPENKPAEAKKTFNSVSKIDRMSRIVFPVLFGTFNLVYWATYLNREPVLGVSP
Chain of α2T206Cβ2γ2 GABAA receptor (P18508 39-466): as the sequence (P18508 39-466) above
Chain of α2T206Cβ2γ2 GABAA receptor (P63138 26-474 partner): as the sequence (P63138 26-474 partner) above
Chain of α1S205Cβ2γ2 GABAA receptor (P62813 28-455 S232C): as the sequence (P62813 28-455 T233C) above, with S205C, C206T counted along it
Chain of α1S205Cβ2γ2 GABAA receptor (P18508 39-466): as the sequence (P18508 39-466) above
Chain of α1S205Cβ2γ2 GABAA receptor (P63138 26-474 partner): as the sequence (P63138 26-474 partner) above
Chain of α2S205Cβ2γ2 GABAA receptor (P23576 29-451 S233C): as the sequence (P23576 29-451 T234C) above, with S205C, C206T counted along it
Chain of α2S205Cβ2γ2 GABAA receptor (P18508 39-466, stated change not applied): as the sequence (P18508 39-466) above
Chain of α2S205Cβ2γ2 GABAA receptor (P63138 26-474 partner): as the sequence (P63138 26-474 partner) above
Chain of α2S204Cβ2γ2 GABAA receptor (P23576 29-451 S232C): as the sequence (P23576 29-451 T234C) above, with S204C, C206T counted along it
Chain of α2S204Cβ2γ2 GABAA receptor (P18508 39-466): as the sequence (P18508 39-466) above
Chain of α2S204Cβ2γ2 GABAA receptor (P63138 26-474 partner): as the sequence (P63138 26-474 partner) above

On to `CN1C(=O)C(N=C=S)N=C(c2ccccc2)c2cc([N+](=O)[O-])ccc21` (stereo not drawn) [3-NCS], for which the activation at 10 µM in assay [1] came out at 1 ± 10%; in assay [2], 119 ± 51%; in assay [3], 60 ± 43%; in assay [4] it was 35 ± 10%; in assay [5], 53 ± 29%. Moreover, the “Covalent reaction with 3-NCS (in words)” value in assay [6] is given as “resulted in covalent reaction”.
